Experimental data as given in US9776972B2, “Pyrazole derivatives as arginine methyltransferase inhibitors and uses thereof” (priority 2013, dated 2017).
Like-named read-outs stand apart in the source and are kept apart here.

Columns and labels:
human PRMT8 = human PRMT8 (Homo sapiens, UniProt Q9NR22); assay: PRMT8 Biochemical Assay (3H-SAM Flashplate, peptide substrate)
Description: S-adenosylmethionine (SAM), S-adenosylhomocysteine (SAH), bicine, Tween20, dimethylsulfoxide (DMSO), bovine skin gelatin (BSG), isopropyl-β-D-thiogalactopyranoside (IPTG), and Tris(2-carboxyethyl)phosphine hydrochloride solution (TCEP) were purchased from Sigma-Aldrich at the highest level of purity possible. ^3H-SAM was purchase from American Radiolabeled Chemicals with a specific activity of 80 Ci/mmol. 384-well streptavidin Flashplates were purchased from PerkinElmer.
Peptide representative of human histone H4 residues 31-45 was synthesized with an N-terminal linker-affinity tag motif and a C-terminal amide cap by 21st Century Biochemicals.
E. coli (BL21(DE3) Gold, Stratagene) made competent by the CaCl2 method were transformed with the PRMT8 construct and ampicillin selection. Protein over-expression was accomplished by growing the PRMT8 expressing E. coli clone and inducing expression with 0.3 mM IPTG at 16° C. The culture was grown for 12 hours, harvested by centrifugation, and stored at −80° C. for purification.
GST-tagged PRMT8 was eluted with 50 mM Tris, 2 mM glutathione, pH 7.8. Pooled fractions were cleaved by thrombin (10 U) and dialysed in buffer A. GST was removed by reloading the cleaved protein sample onto glutathione sepharose column and PRMT8 was collected in the flow-through fractions. PRMT8 was purified further by ceramic hydroxyapatite chromatography. The column was washed with 50 mM phosphate buffer, 100 mM NaCl, 5% glycerol, 5 mM β-mercaptoethanol, pH 7.8 and PRMT8 was eluted by 100 mM phosphate in the same buffer. Protein was concentrated and buffer was exchanged to 50 mM Tris, 300 mM NaCl, 10% glycerol, 5 mM β-mercaptoethanol, pH 7.8 by ultrafiltration.
General Procedure for PRMT8 Enzyme Assays on Peptide Substrates.
The assays were all performed in a buffer consisting of 20 mM Bicine (pH=7.6), 1 mM TCEP, 0.005% BSG, and 0.002% Tween 20, prepared on the day of use. […] DMSO (1 ul) was added to Columns 11, 12, 23, 24, rows A-H for the maximum signal control and 1 ul of SAH, a known product and inhibitor of PRMT8, was added to columns 11, 12, 23, 24, rows I-P for the minimum signal control. A cocktail (40 ul) containing the PRMT8 enzyme was added by Multidrop Combi (Thermo-Fisher). The compounds were allowed to incubate with PRMT8 for 30 min at room temperature, then a cocktail (10 ul) containing ^3H-SAM and peptide was added to initiate the reaction (final volume=51 ul). […] The assays were stopped by the addition of non-radiolabeled SAM (10 ul) to a final concentration of 400 uM, which dilutes the ^3H-SAM to a level where its incorporation into the peptide substrate is no longer detectable. 50 ul of the reaction in the 384-well polypropylene plate was then transferred to a 384-well Flashplate and the biotinylated peptides were allowed to bind to the streptavidin surface for at least 1 hour before being washed once with 0.1% Tween20 in a Biotek ELx405 plate washer. The plates were then read in a PerkinElmer TopCount plate reader to measure the quantity of ^3H-labeled peptide bound to the Flashplate surface, measured as disintegrations per minute (dpm) or alternatively, referred to as counts per minute (cpm).
Where dpm=disintegrations per minute, cmpd=signal in assay well, and min and max are the respective minimum and maximum signal controls.
Where top and bottom are the normally allowed to float, but may be fixed at 100 or 0 respectively in a 3-parameter fit. The Hill Coefficient normally allowed to float but may also be fixed at 1 in a 3-parameter fit. Y is the % inhibition and X is the compound concentration.

[1] = test system: mono-methyl arginine in RKO cells; assay: RKO Methylation Assay, In Cell Western (ICW) for mono-methyl arginine and DNA content; type: cell-based; details: Homo sapiens, RKO, 72 h
Summary of the method: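 After fixation, mono-methyl arginine and DNA (DRAQ5) were measured by infrared In-Cell Western imaging at 700/800 nm in RKO cells exposed to compounds for 72 hours. Percent activation used DMSO wells as minimum and 20 μM reference compound as maximum; EC30 curves fitted on triplicate wells.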

[2] = single experiment or average of multiple experiments
[3] = RKO cells, 72 hours, mono-methyl arginine, percent activation, single experiment or average of multiple experiments, read-out: EC30 (In Cell Western data, Numerical)
[4] = RKO cells, 72 hours, mono-methyl arginine, percent activation, class symbols, read-out: EC30 (In Cell Western data)

Sequence of human PRMT8 (Q9NR22 whole entry): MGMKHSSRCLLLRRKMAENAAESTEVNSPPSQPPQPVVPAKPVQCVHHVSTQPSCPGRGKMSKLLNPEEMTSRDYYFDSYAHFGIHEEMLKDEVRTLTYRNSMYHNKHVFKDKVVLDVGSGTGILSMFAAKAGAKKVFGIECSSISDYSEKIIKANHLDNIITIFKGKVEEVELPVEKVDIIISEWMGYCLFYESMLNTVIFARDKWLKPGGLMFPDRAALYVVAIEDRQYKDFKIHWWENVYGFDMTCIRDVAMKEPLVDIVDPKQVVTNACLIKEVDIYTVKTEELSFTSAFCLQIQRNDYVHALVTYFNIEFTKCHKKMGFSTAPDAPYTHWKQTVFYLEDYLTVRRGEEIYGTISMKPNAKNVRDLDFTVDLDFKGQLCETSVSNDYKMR

SMILES	IC50 (human PRMT8; [2]) [nM]	EC30 [1, 3] [µM]	IC50 (human PRMT8) [nM]	EC30 [1, 4] [µM]	EC30 ([1]; read-out: EC30 (In Cell Western data)) [µM]	EC30 ([1]; read-out: EC30 (In Cell Western data, Numerical, μM)) [µM]
COc1cc(-c2n[nH]cc2CN(C)CCN)ccc1F [Compound 142]	273	2.1				
CCN(CC)C(=O)c1ccc(-c2n[nH]cc2CN(C)CCN)cc1 [Compound 143]	1750	> 20				
CC(C)Oc1ccc(-c2c[nH]nc2CN(C)CCN)cc1F [Compound 144]	171	0.284				
CNCCN(C)Cc1c[nH]nc1-c1ccc(OC2COC2)cc1 [Compound 283]	42.8	0.379	< 100	< 3		
CNCCN(C)Cc1c[nH]nc1-c1ccc(OCC2CCOCC2)cc1 [Compound 284]	90.2	0.856	< 100	< 3		
CNCCN(C)Cc1c[nH]nc1-c1ccc(OCC2CCOC2)cc1 (centres unmarked) [Compound 285]	69.2	0.62	< 100	< 3		
CNCCN(C)Cc1c[nH]nc1-c1ccc(OC(CO)C(C)C)cc1 (centres unmarked) [Compound 286]	55.3	0.812	< 100	< 3		
CNCCN(C)Cc1c[nH]nc1-c1ccc(OCC2CC2)cc1 [Compound 288]	14.2	0.076	< 100	< 3		
CNCCN(C)Cc1c[nH]nc1-c1ccc(OCCOC)cc1 [Compound 289]	46	0.419	< 100	< 3		
CCC(CC)Oc1ccc(-c2n[nH]cc2CN(C)CCNC)cc1 [Compound 290]	10.6	0.021	< 100	< 3		
CNCCN(C)Cc1c[nH]nc1-c1ccc(OC2CCOCC2)c(F)c1 [Compound 291]	25.4		< 100		< 3	0.154
CNCCN(C)Cc1c[nH]nc1-c1ccc(OC2CCOCC2)c(Cl)c1 [Compound 292]	8.52	0.098	< 100	< 3		
CNCCN(C)Cc1c[nH]nc1-c1ccc(OC2CC2)cc1 [Compound 293]	28	0.336	< 100	< 3		
CNCCN(C)Cc1c[nH]nc1-c1ccc(NC(C)C)cc1 [Compound 295]	33.7	0.116	< 100	< 3		
CNCCN(C)Cc1c[nH]nc1-c1ccc(NCC(C)C)cc1 [Compound 296]	57.6	0.478	< 100	< 3		
CNCCN(C)Cc1c[nH]nc1-c1ccc(Oc2ccccc2)c(F)c1 [Compound 297]	6.68	0.08	< 100	< 3		
CNCCN(C)Cc1c[nH]nc1-c1ccc(OCC2CC2)c(F)c1 [Compound 298]	16.3	0.104	< 100	< 3		
CNCCN(C)Cc1c[nH]nc1-c1ccc(OC2CCC(O)CC2)cc1 (centres unmarked) [Compound 299]	55	0.877	< 100	< 3		

SMILES	IC50 (human PRMT8; [2]) [nM]	EC30 [1, 3] [µM]	IC50 (human PRMT8) [nM]	EC30 [1, 4] [µM]	EC30 ([1]; read-out: EC30 (In Cell Western data)) [µM]	EC30 ([1]; read-out: EC30 (In Cell Western data, Numerical, μM)) [µM]
CNCCN(C)Cc1c[nH]nc1-c1ccc(N(C)C(C)C)cc1 [Compound 300]	64.7	0.611	< 100	< 3		
CNCCN(C)Cc1c[nH]nc1-c1ccc(OC2CC2)c(F)c1 [Compound 301]	23.5	0.128	< 100	< 3		
CNCCN(C)Cc1c[nH]nc1-c1ccc(Oc2ncccn2)cc1 [Compound 302]	123	0.976	101 to 1000	< 3		
CNCCN(C)Cc1c[nH]nc1-c1ccc(Oc2cncnc2)cc1 [Compound 303]	54.7	0.712	< 100	< 3		
CNCCN(C)Cc1c[nH]nc1-c1ccc(OC2CCC2)cc1 [Compound 304]	22.4	0.155	< 100	< 3		
CNCCN(C)Cc1c[nH]nc1-c1ccc(OC2CCC2)c(F)c1 [Compound 305]	18.3	0.193	< 100	< 3		
CNCCN(C)Cc1c[nH]nc1-c1ccc(OCC(C)C)cc1 [Compound 306]	18.5	0.1	< 100	< 3		
CNCCN(C)Cc1c[nH]nc1-c1ccc(OCC2CCC2)cc1 [Compound 307]	14	0.109	< 100	< 3		
CC[C@@H](C)Oc1ccc(-c2n[nH]cc2CN(C)CCNC)cc1 [Compound 308]	14.1	0.065	< 100	< 3		
CC[C@H](C)Oc1ccc(-c2n[nH]cc2CN(C)CCNC)cc1 [Compound 309]	13	0.024	< 100	< 3		
CCC(COC)Oc1ccc(-c2n[nH]cc2CN(C)CCNC)cc1 (centres unmarked) [Compound 310]	17	0.032	< 100	< 3		
CNCCN(C)Cc1c[nH]nc1-c1ccc(OC(COC)C(C)C)cc1 (centres unmarked) [Compound 311]	50.9	0.227	< 100	< 3		
CNCCN(C)Cc1c[nH]nc1-c1ccc(Oc2ccncn2)cc1 [Compound 312]	90.9	0.824	< 100	< 3		
CNCCN(C)Cc1c[nH]nc1-c1ccc(C(C)(C)COC)cc1 [Compound 313]	60.1	0.894	< 100	< 3		
CNCCN(C)Cc1c[nH]nc1-c1ccc(OC(COC)CC(C)C)cc1 (centres unmarked) [Compound 314]	110	0.51	101 to 1000	< 3		
CNCCN(C)Cc1c[nH]nc1-c1ccc(OC2CC(OC)C2)cc1 (centres unmarked) [Compound 315]	108	0.843	101 to 1000	< 3		
CNCCN(C)Cc1c[nH]nc1-c1ccc(OC(COC)COC)cc1 [Compound 316]	43	0.063	< 100	< 3		
